Twelve compounds from ChEMBL document CHEMBL1201862, “PubChem BioAssay data set” (2004) can be followed below.

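Cells were grown in 96-well plates and exposed to each compound for 48 hours at five concentrations; endpoints were interpolated linearly between bracketing concentrations, or set to the highest concentration if not reached. Here, GI50 denotes the concentration required for 50% inhibition of growth.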 Active and inactive are the calls of the source. Rule as the data show it: active = GI50 up to about 1.1 µM and inactive = higher.

Among the test systems are A498; COLO 205; HCC 2998; HOP-62; HOP-92; LOX IMVI; M14; MDA-MB-435; Malme-3M; OVCAR-3; OVCAR-4; OVCAR-8; PC-3; SF-295; SF-539; SK-MEL-5; SNB-19; UACC-62; NCI-H522; MDA-N.
What all share (assay): growth of human tumour cells (NCI), 48 h

In the case of `COc1ccc(C2(c3ccc(OC)cc3)OC(=O)c3cccc4cccc2c34)cc1`, the GI50 in the assay on A498 is > 100 µM (inactive); in the assay on COLO 205, 2.81 µM (inactive); in the assay on HCC 2998, 3.14 µM (inactive); with HOP-62, 6.98 µM (inactive); with HOP-92, > 100 µM (inactive); in the assay with LOX IMVI, 8.89 µM (inactive). Further, the GI50 is 3.78 µM (inactive) with M14; 2.69 µM (inactive) in the assay on MDA-MB-435; 5.37 µM (inactive) in the assay on Malme-3M; 4.81 µM (inactive) in the assay with OVCAR-3; 4.85 µM (inactive) with OVCAR-4; 15.7 µM (inactive) in the assay with OVCAR-8. Moreover, the GI50 was 2.16 µM (inactive) in the assay on PC-3; 3.97 µM (inactive) in the assay with SF-295; 3.48 µM (inactive) with SF-539; 5.25 µM (inactive) with SK-MEL-5; 94 µM (inactive) with SNB-19; 5.28 µM (inactive) with UACC-62.

On to `COc1cc(C2c3cc4c(cc3OC(N3CCOCC3)C2C)OCO4)cc(OC)c1O` (configuration not stated), for which the GI50 in the assay on A498 is 15.1 µM (inactive); with COLO 205, 15.6 µM (inactive); with HCC 2998 it was 10.5 µM (inactive); in the assay on HOP-62, 9.57 µM (inactive); in the assay with HOP-92 it was 12.8 µM (inactive); in the assay with LOX IMVI, 6.7 µM (inactive). Besides, the GI50 is 7.29 µM (inactive) in the assay with M14; 2.1 µM (inactive) with MDA-MB-435; 3.29 µM (inactive) in the assay on Malme-3M; 2.8 µM (inactive) with NCI-H522; 5.42 µM (inactive) with OVCAR-3; 36.6 µM (inactive) with OVCAR-4. Also, the GI50 with OVCAR-8 was 14.2 µM (inactive); in the assay with PC-3, 6.19 µM (inactive); with SF-295, 3.59 µM (inactive); in the assay with SF-539 it was 5.66 µM (inactive); with SK-MEL-5 it was 3.18 µM (inactive); in the assay on SNB-19, 22.3 µM (inactive). Further, the GI50 with UACC-62 was 3.73 µM (inactive).

In the case of `COc1ccc2c(c1)C1=NCCN(CCN(C)C)c3ccc([N+](=O)[O-])c(c31)N2`, the GI50 in the assay on A498 is 1.59 µM (inactive); with HOP-62, 1.21 µM (inactive); in the assay with HOP-92, 0.603 µM (active); in the assay on LOX IMVI it was 0.351 µM (active); with M14, 0.489 µM (active); with MDA-MB-435 it was 0.627 µM (active). Besides, the GI50 in the assay on MDA-N is 0.542 µM (active); in the assay on Malme-3M, 0.431 µM (active); in the assay on OVCAR-3 it was 0.499 µM (active); in the assay on OVCAR-4, 0.191 µM (active); in the assay on OVCAR-8, 0.526 µM (active); with PC-3 it was 0.411 µM (active). Besides, the GI50 is 0.35 µM (active) with SF-295; 0.432 µM (active) in the assay with SF-539; 0.845 µM (active) in the assay on SK-MEL-5; 0.492 µM (active) in the assay with SNB-19; 0.535 µM (active) in the assay with UACC-62.

For `CCOC(=O)C(=NN(C)c1ncccc1N)C(=O)OCC`, the GI50 with A498 is 39.8 µM (inactive); with COLO 205, 14.4 µM (inactive); in the assay on HOP-62, > 100 µM (inactive); in the assay with HOP-92, 23.3 µM (inactive); in the assay on LOX IMVI, 18.3 µM (inactive); in the assay with M14 it was 32.5 µM (inactive). For the same compound, the GI50 was 19.3 µM (inactive) in the assay on MDA-MB-435; 34.8 µM (inactive) in the assay on MDA-N; 29.1 µM (inactive) in the assay on Malme-3M; 30.7 µM (inactive) with OVCAR-3; 97.3 µM (inactive) with OVCAR-4; 38.3 µM (inactive) with OVCAR-8. The GI50 in the assay on PC-3 was 62.5 µM (inactive); in the assay on SF-295, > 100 µM (inactive); in the assay on SF-539 it was 22.9 µM (inactive); in the assay on SK-MEL-5, 68.4 µM (inactive); in the assay with SNB-19 it was > 100 µM (inactive); with UACC-62, > 100 µM (inactive).

For the compound `COc1cc2c(/C=C3/C(=O)Nc4ccc(O)cc43)c(Cl)[nH]c2cc1C`, the GI50 was 11.4 µM (inactive) in the assay on A498; 0.192 µM (active) in the assay on COLO 205; 0.127 µM (active) with HOP-62; 15.9 µM (inactive) in the assay with HOP-92; 0.0775 µM (active) in the assay with LOX IMVI; 0.0897 µM (active) in the assay on M14. Moreover, the GI50 with MDA-MB-435 is < 0.0137 µM (active); in the assay with Malme-3M, 0.0398 µM (active); in the assay with NCI-H522, 0.146 µM (active); in the assay on OVCAR-3, 0.026 µM (active); with OVCAR-4 it was 0.562 µM (active); in the assay on OVCAR-8, 0.281 µM (active). For the same compound, the GI50 with PC-3 is 0.359 µM (active); in the assay with SF-295, 0.0984 µM (active); in the assay on SF-539, 0.0447 µM (active); with SK-MEL-5, 0.0822 µM (active); with SNB-19 it was 0.146 µM (active); in the assay with UACC-62, 0.0499 µM (active).

For the compound `COc1ccccc1C(=O)OCC1CCCN2CCCCC12` (configuration not stated), the GI50 in the assay on A498 was > 100 µM (inactive); in the assay on COLO 205, 21.1 µM (inactive); in the assay with HCC 2998, 17.8 µM (inactive); in the assay on HOP-92 it was > 100 µM (inactive); in the assay on LOX IMVI, 17.1 µM (inactive); in the assay with MDA-MB-435, 64.3 µM (inactive). Further, the GI50 in the assay with Malme-3M was 33.6 µM (inactive); with OVCAR-4, 83 µM (inactive); in the assay on OVCAR-8, 21 µM (inactive); in the assay on PC-3, 85.5 µM (inactive); with SF-295 it was 26.3 µM (inactive); with SF-539, > 100 µM (inactive). The values for the GI50 in the assay on SK-MEL-5, in the assay with SNB-19 and with UACC-62 were 34.4 µM (inactive), 35.9 µM (inactive) and 31.7 µM (inactive), respectively.

Regarding `COc1ccc(CCNC(=O)Cc2ccccc2CCO)cc1OC`, the GI50 in the assay with A498, with COLO 205, with HCC 2998, in the assay with HOP-62, in the assay with HOP-92 and in the assay with M14 was > 100 µM (inactive) in each case. The GI50 was > 100 µM (inactive) with MDA-MB-435; > 100 µM (inactive) with NCI-H522; > 100 µM (inactive) in the assay with OVCAR-3; 41.8 µM (inactive) in the assay with OVCAR-4; > 100 µM (inactive) in the assay on OVCAR-8; > 100 µM (inactive) in the assay with PC-3. In addition, the GI50 in the assay on SF-295 was > 100 µM (inactive); in the assay on SF-539, > 100 µM (inactive); with SK-MEL-5, > 100 µM (inactive); in the assay with SNB-19, 27.4 µM (inactive); in the assay with UACC-62 it was > 100 µM (inactive).

Take `O=C(c1cc2ccccc2cc1O)N1CCCCC1`: the GI50 in the assay with A498 is 15.2 µM (inactive); with COLO 205 it was 32.7 µM (inactive); in the assay with HCC 2998, 21.2 µM (inactive); with HOP-62, 27.4 µM (inactive); in the assay on HOP-92 it was 11.4 µM (inactive); with LOX IMVI, 55.1 µM (inactive). Further, the GI50 was 18.1 µM (inactive) in the assay with M14; 33.3 µM (inactive) with MDA-MB-435; 37.7 µM (inactive) with OVCAR-4; 20.8 µM (inactive) in the assay on OVCAR-8; 29.8 µM (inactive) in the assay on PC-3; 25.4 µM (inactive) in the assay on SF-295. Besides, the GI50 in the assay on SF-539 was 37.3 µM (inactive); in the assay on SK-MEL-5, 20 µM (inactive); with SNB-19, 28.5 µM (inactive); with UACC-62, 31.4 µM (inactive).

For `Cc1ccc2c(O)cc(-c3cccc(Cl)c3)nc2n1`, the GI50 in the assay on A498 is 0.0333 µM (active); in the assay on COLO 205, 0.0308 µM (active); in the assay with HCC 2998, 0.12 µM (active); with HOP-62, 0.0305 µM (active); in the assay with HOP-92, 1.25 µM (inactive); in the assay with LOX IMVI it was 0.024 µM (active). The GI50 in the assay with M14 is 0.0306 µM (active); with MDA-MB-435 it was < 0.01 µM (active); in the assay with MDA-N, 1 µM (active); in the assay on Malme-3M, 0.0661 µM (active); in the assay on NCI-H522, < 0.01 µM (active); in the assay on OVCAR-3, < 0.01 µM (active). Besides, the GI50 with OVCAR-4 is > 62.1 µM (inactive); in the assay on OVCAR-8, 0.115 µM (active); in the assay with SF-295, < 0.0151 µM (active); in the assay with SF-539, < 0.01 µM (active); in the assay on SK-MEL-5 it was < 0.0177 µM (active); with SNB-19, 0.0705 µM (active). In the assay with UACC-62, the GI50 was < 0.01 µM (active).

As for `COc1ccc(Cc2ccccc2C(=O)O)c2ccccc12`, the GI50 with A498 was 22.8 µM (inactive); in the assay with COLO 205, 17.9 µM (inactive); with HOP-62, 36.6 µM (inactive); with HOP-92 it was 18.8 µM (inactive); in the assay with LOX IMVI, 23.2 µM (inactive); with M14, 35.6 µM (inactive). Besides, the GI50 is 22 µM (inactive) in the assay with MDA-MB-435; 27.6 µM (inactive) in the assay with MDA-N; 21.8 µM (inactive) with Malme-3M; 20.3 µM (inactive) in the assay on NCI-H522; 20.7 µM (inactive) with OVCAR-3; 36.6 µM (inactive) with OVCAR-4. Also, the GI50 was 28.5 µM (inactive) in the assay on OVCAR-8; 30.6 µM (inactive) in the assay with PC-3; 28.4 µM (inactive) with SF-295; 17.3 µM (inactive) in the assay with SK-MEL-5; 37.3 µM (inactive) with SNB-19; 16.3 µM (inactive) with UACC-62.

Take `O=C(c1cccc2ccccc12)C1(Br)S(=O)(=O)OCCOS1(=O)=O`: the GI50 in the assay on COLO 205 was > 100 µM (inactive); in the assay on HCC 2998, > 100 µM (inactive); in the assay on HOP-62 it was > 100 µM (inactive); in the assay on HOP-92, > 10 µM (inactive); in the assay with LOX IMVI, > 100 µM (inactive); in the assay on M14 it was > 100 µM (inactive). The GI50 in the assay on MDA-MB-435, in the assay with MDA-N, in the assay with Malme-3M, with OVCAR-3, in the assay on OVCAR-4 and with OVCAR-8 was > 100 µM (inactive) throughout. Besides, the GI50 in the assay on SF-295, in the assay with SK-MEL-5 and in the assay with SNB-19 was > 100 µM (inactive) throughout.

As for `C/C=C(\C)C(=O)N1c2ccccc2CC1c1c(C)[nH]c2ccccc12` (configuration not stated), the GI50 with A498 was > 100 µM (inactive); with COLO 205, 23.3 µM (inactive); in the assay on HCC 2998, > 100 µM (inactive); in the assay with HOP-62, > 100 µM (inactive); in the assay on HOP-92, 12.2 µM (inactive); in the assay with LOX IMVI it was > 100 µM (inactive). Moreover, the GI50 in the assay with M14 is 39.3 µM (inactive); in the assay with Malme-3M it was 32 µM (inactive); in the assay with NCI-H522, 42.3 µM (inactive); in the assay with OVCAR-3, 21.5 µM (inactive); in the assay on OVCAR-4, 4.15 µM (inactive); in the assay with OVCAR-8, 83.8 µM (inactive). The GI50 with SF-295 is 40 µM (inactive); with SF-539 it was 50.8 µM (inactive); in the assay with SK-MEL-5 it was > 10 µM (inactive); with SNB-19, > 100 µM (inactive); in the assay with UACC-62 it was 40.7 µM (inactive).
